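In this assay, cells in 96-well plates receive the compound at five concentrations for 48 hours. Endpoints are linearly interpolated between the surrounding concentrations. At the TGI there is no net growth.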
Tests used:
Assay in all cases: NCI anticancer screen, dose series, 48 h
[1] = test system: SK-OV-3 ovarian
[2] = test system: ACHN renal
[3] = test system: SNB-19 CNS
[4] = test system: SR leukemia
[5] = test system: OVCAR-4 ovarian
[6] = test system: EKVX NSCLC
[7] = test system: MDA-MB-435
[8] = test system: K-562 leukemia
[9] = test system: MOLT-4 leukemia
[10] = test system: HCT-15 colon
[11] = test system: HT29 colon
[12] = test system: CCRF-CEM leukemia
[13] = test system: OVCAR-3 ovarian
[14] = test system: NCI-H23 lung
[15] = test system: NCI-H226 lung
[16] = test system: NCI-H522 lung
[17] = test system: BT-549 breast
[18] = test system: COLO 205 colon
[19] = test system: MDA-N
[20] = test system: 786-0 renal
[21] = test system: PC-3 prostate
[22] = test system: T-47D breast
[23] = test system: LOX IMVI melanoma
[24] = test system: U251 CNS
[25] = test system: SF-295 CNS
[26] = test system: DU-145 prostate
[27] = test system: MCF7 breast
[28] = test system: OVCAR-5 ovarian
[29] = test system: MDA-MB-231 breast
[30] = test system: NCI/ADR-RES ovarian
[31] = test system: UACC-62 melanoma
[32] = test system: SK-MEL-28 melanoma
[33] = test system: KM12 colon
[34] = test system: M14 melanoma
[35] = test system: SK-MEL-5 melanoma
[36] = test system: A549 NSCLC
[37] = test system: SW-620 colon
[38] = test system: RXF 393 renal
[39] = test system: SNB-75 CNS
[40] = test system: HOP-62 NSCLC
[41] = test system: SF-268 CNS
[42] = test system: SN12C renal
[43] = test system: SF-539 CNS
[44] = test system: SK-MEL-2 melanoma
[45] = test system: TK-10 renal
[46] = test system: UO-31 renal
[47] = test system: NCI-H460 lung
[48] = test system: IGROV1 ovarian
[49] = test system: CAKI-1 renal
[50] = test system: UACC-257 melanoma
[51] = test system: HCT-116 colon
[52] = test system: HOP-92 NSCLC
[53] = test system: MALME-3M melanoma
[54] = test system: HCC-2998 colon
[55] = test system: HL-60(TB) leukemia
[56] = test system: OVCAR-8 ovarian
[57] = test system: A498 renal
[58] = test system: RPMI-8226 leukemia

`CC(C)=CCC/C(C)=C/CCC(C(=O)COCc1ccccc1)P1(=O)OC(C)(C)CN1C(C)(C)C` (configuration not stated) was tested, and the TGI [1] was > 100 µM, the TGI [2] was > 100 µM and the TGI [3] was > 100 µM. For the same molecule, the TGI [4] was 46.5 µM, the TGI [5] was 81.2 µM and the TGI [6] was > 100 µM. For the same molecule, the TGI [7] was > 100 µM, the TGI [8] was 73.9 µM and the TGI [9] was 38.6 µM. The TGI [10] was > 100 µM, the TGI [11] was > 100 µM and the TGI [12] was 93.7 µM. For the same molecule, the TGI [13] was > 100 µM, the TGI [14] was > 100 µM and the TGI [15] was > 100 µM. For the same molecule, the TGI [16] was > 100 µM, the TGI [17] was > 100 µM and the TGI [18] was > 100 µM. The TGI [19] was > 100 µM, the TGI [20] was > 100 µM and the TGI [21] was > 100 µM. The TGI [22] was > 100 µM, the TGI [23] was > 100 µM and the TGI [24] was > 100 µM. For the same molecule, the TGI [25] was > 100 µM, the TGI [26] was > 100 µM and the TGI [27] was > 100 µM. For the same molecule, the TGI [28] was > 100 µM, the TGI [29] was > 100 µM and the TGI [30] was > 100 µM. The TGI [31] was > 100 µM, the TGI [32] was > 100 µM and the TGI [33] was > 100 µM. For the same molecule, the TGI [34] was > 100 µM, the TGI [35] was > 100 µM and the TGI [36] was > 100 µM. The TGI [37] was > 100 µM, the TGI [38] was > 100 µM and the TGI [39] was > 100 µM. The TGI [40] was > 100 µM, the TGI [41] was > 100 µM and the TGI [42] was > 100 µM. For the same molecule, the TGI [43] was > 100 µM, the TGI [44] was > 100 µM and the TGI [45] was > 100 µM. The TGI [46] was > 100 µM, the TGI [47] was > 100 µM and the TGI [48] was > 100 µM. For the same molecule, the TGI [49] was > 100 µM, the TGI [50] was > 100 µM and the TGI [51] was > 100 µM.
For `COc1ccc(N[C@H]([C@@H](c2ccccc2)S(=O)c2ccc(C)cc2)C(F)(F)F)cc1` (some centres not stated), the TGI [1] was > 100 µM, the TGI [2] was > 100 µM and the TGI [3] was > 100 µM. For the same molecule, the TGI [4] was > 100 µM, the TGI [5] was 79.5 µM and the TGI [6] was > 100 µM. For the same molecule, the TGI [7] was > 100 µM, the TGI [8] was > 100 µM and the TGI [9] was > 100 µM. For the same molecule, the TGI [10] was > 100 µM, the TGI [11] was > 100 µM and the TGI [12] was 66.6 µM. For the same molecule, the TGI [13] was > 100 µM, the TGI [14] was > 100 µM and the TGI [15] was > 100 µM. The TGI [16] was > 100 µM, the TGI [52] was > 100 µM and the TGI [17] was > 100 µM. The TGI [18] was > 100 µM, the TGI [19] was > 100 µM and the TGI [20] was > 100 µM. For the same molecule, the TGI [21] was > 100 µM, the TGI [22] was > 100 µM and the TGI [23] was > 100 µM. For the same molecule, the TGI [24] was 50.2 µM, the TGI [25] was > 100 µM and the TGI [26] was > 100 µM. For the same molecule, the TGI [27] was > 100 µM, the TGI [28] was > 100 µM and the TGI [29] was > 100 µM. For the same molecule, the TGI [30] was > 100 µM, the TGI [31] was > 100 µM and the TGI [32] was > 100 µM. The TGI [33] was > 100 µM, the TGI [34] was > 100 µM and the TGI [53] was > 100 µM. The TGI [54] was > 100 µM, the TGI [35] was > 100 µM and the TGI [36] was > 100 µM. The TGI [37] was > 100 µM, the TGI [38] was > 100 µM and the TGI [39] was > 100 µM. The TGI [42] was > 100 µM, the TGI [43] was 63.2 µM and the TGI [44] was > 100 µM. The TGI [45] was > 100 µM, the TGI [55] was 73.7 µM and the TGI [56] was > 100 µM. For the same molecule, the TGI [46] was > 100 µM, the TGI [47] was > 100 µM and the TGI [48] was > 100 µM. The TGI [49] was > 100 µM, the TGI [50] was > 100 µM and the TGI [51] was > 100 µM.
With `COc1ccc2c(c1)OCC1Cc3cc4c(cc3OC21)OCO4` (configuration not stated) the TGI [1] was > 100 µM, the TGI [2] was > 100 µM and the TGI [3] was > 100 µM. For the same molecule, the TGI [4] was > 100 µM, the TGI [6] was > 100 µM and the TGI [7] was 34.7 µM. For the same molecule, the TGI [8] was > 100 µM, the TGI [9] was > 100 µM and the TGI [10] was > 100 µM. The TGI [11] was > 100 µM, the TGI [12] was > 100 µM and the TGI [13] was > 100 µM. For the same molecule, the TGI [14] was > 100 µM, the TGI [15] was > 100 µM and the TGI [16] was > 100 µM. For the same molecule, the TGI [57] was > 100 µM, the TGI [52] was > 100 µM and the TGI [17] was > 100 µM. The TGI [18] was > 100 µM, the TGI [19] was 13.8 µM and the TGI [20] was > 100 µM. For the same molecule, the TGI [21] was > 100 µM, the TGI [22] was > 100 µM and the TGI [23] was 52.4 µM. For the same molecule, the TGI [24] was > 100 µM, the TGI [25] was > 100 µM and the TGI [26] was > 100 µM. For the same molecule, the TGI [27] was > 100 µM, the TGI [28] was > 100 µM and the TGI [29] was > 100 µM. For the same molecule, the TGI [30] was > 100 µM, the TGI [31] was > 100 µM and the TGI [33] was > 100 µM. For the same molecule, the TGI [34] was > 100 µM, the TGI [58] was > 100 µM and the TGI [53] was > 100 µM. The TGI [54] was > 100 µM, the TGI [35] was 57.2 µM and the TGI [36] was > 100 µM. The TGI [37] was > 100 µM, the TGI [40] was > 100 µM and the TGI [41] was > 100 µM. For the same molecule, the TGI [42] was > 100 µM, the TGI [43] was > 100 µM and the TGI [44] was 86.9 µM. The TGI [45] was 81.1 µM, the TGI [56] was > 100 µM and the TGI [46] was > 100 µM. The TGI [48] was > 100 µM, the TGI [49] was > 100 µM and the TGI [50] was > 100 µM. For the same molecule, the TGI [51] was > 100 µM.

From PubChem BioAssay (NCI)
